Molecules are shown by their SMILES.

One assay relates to MCH receptors. Nature of the assay: MCH receptor activity class (method not given). To be noted: MCH receptor activity class 1-3 (percent of control at 10^-7 M or IC50).
`CN(C)c1ccnc(N[C@H]2CC[C@@H](CNC(=O)Nc3ccc(Cl)cc3C(F)(F)F)CC2)n1` [compound 2433]: the class was 2 (Class 2: The value of percent of control at 10^−7 M was from 40% to 60% or the value of IC′50 was from 50 nM to 200 nM.).

Staying with this assay, now noted: MCH receptor; class by percent of control at 10^-7 M or IC50.
As to `COc1cc(C(=O)N[C@H]2CC[C@@H](Nc3cc(N(C)C)c4ccccc4n3)CC2)cc(OC)c1OC` [compound 115], the class is 3 (Class 3 The value of percent of control at 10^−7 M was more than 60% or the value of IC50 was more than 200 nM.). Same read-out and setting: for `CN(C)c1cc(N[C@H]2CC[C@@H](NC(=O)c3cnc4ccccc4n3)CC2)nc2ccccc12` [compound 114, N-(cis-4-{[4-(dimethylamino)quinolin-2-yl]amino}cyclohexyl)quinoxaline-2-carboxamide] the value was 2 (Class 2: The value of percent of control at 10^−7 M was from 40% to 60% or the value of IC′50 was from 50 nM to 200 nM.); for `COc1ccc(Cl)cc1NC(=O)N[C@H]1CC[C@@H](Nc2nc3c(c(N(C)C)n2)CCCC3)CC1` [compound 1899], 3 (Class 3 The value of percent of control at 10^−7 M was more than 60% or the value of IC50 was more than 200 nM.).

Staying with this assay, now noted: activity class 1-3: percent of control at 10^-7 M or IC50.
Take `Cc1cc(Br)cc(C)c1NC(=O)N[C@H]1CC[C@@H](Nc2nc3c(c(N(C)C)n2)CCCC3)CC1` [compound 1690, N-(4-bromo-2,6-dimethylphenyl)-N′-(cis-4-{[4-(dimethylamino)-5,6,7,8-tetrahydroquinazolin-2-yl]amino}cyclohexyl)urea]: the class is 1 (Class 1: The value of percent of control at 10^−7 M was less than 40% or the value of IC50 was less than 50 nM.). In the case of `Cc1noc(-c2ccccc2)c1NC(=O)N[C@H]1CC[C@@H](Nc2nc3c(c(N(C)C)n2)CCCC3)CC1` [compound 1691], the class was 1 (Class 1: The value of percent of control at 10^−7 M was less than 40% or the value of IC50 was less than 50 nM.).

The assay is the same for the next values; noted with them: class 1-3 by percent of control at 10^-7 M or IC50.
As to `CN(C)c1nc(N[C@H]2CC[C@@H](CNC(=O)c3ccc(Cl)c(Cl)c3)CC2)nc2c1CCCC2` [compound 593], the class was 3 (Class 3 The value of percent of control at 10^−7 M was more than 60% or the value of IC50 was more than 200 nM.). Regarding `CN(C)c1ccnc(N[C@H]2CC[C@@H](CNC(=O)c3cncc(Br)c3)CC2)n1` [compound 433], the class is given as 3 (Class 3 The value of percent of control at 10^−7 M was more than 60% or the value of IC50 was more than 200 nM.).

The same assay, now with this note: class by percent of control at 10^-7 M or IC50.
Take `CN(C)c1cc(N[C@H]2CC[C@@H](NC(=O)Nc3c(F)cc(Br)cc3Br)CC2)nc2ccccc12` [compound 2101]: the class is on record as 2 (Class 2: The value of percent of control at 10^−7 M was from 40% to 60% or the value of IC′50 was from 50 nM to 200 nM.). `COc1cc(CCN[C@H]2CC[C@@H](Nc3cc(N(C)C)c4ccccc4n3)CC2)cc(OC)c1` [compound 1458]: the class is on record as 3 (Class 3 The value of percent of control at 10^−7 M was more than 60% or the value of IC50 was more than 200 nM.). Same read-out and setting: for `CN(C)c1cc(N[C@H]2CC[C@@H](NC(=O)c3cccc(C(=O)c4ccccc4)c3)CC2)nc2ccccc12` [compound 733] the value was 3 (Class 3 The value of percent of control at 10^−7 M was more than 60% or the value of IC50 was more than 200 nM.); for `CSc1ncccc1C(=O)NC[C@H]1CC[C@@H](Nc2nc3c(c(N(C)C)n2)CCCC3)CC1` [compound 604], 3 (Class 3 The value of percent of control at 10^−7 M was more than 60% or the value of IC50 was more than 200 nM.). The same measure, in the same setting: for `CC(=O)c1cccc(C(=O)N[C@H]2CC[C@@H](Nc3nccc(N(C)C)n3)CC2)c1` [compound 831] the value was 2 (Class 2: The value of percent of control at 10^−7 M was from 40% to 60% or the value of IC′50 was from 50 nM to 200 nM.). For `CC(NC(=O)N[C@H]1CC[C@@H](Nc2nccc(N(C)C)n2)CC1)c1ccccc1` (relative stereo) [compound 2226], the class was 3 (Class 3 The value of percent of control at 10^−7 M was more than 60% or the value of IC50 was more than 200 nM.). As for `CN(C)c1ccnc(N[C@H]2CC[C@@H](CNC(=O)C3c4ccccc4Oc4ccccc43)CC2)n1` [compound 947, N-[(cis-4-{[4-(dimethylamino)pyrimidin-2-yl]amino}cyclohexyl)methyl]-9H-xanthene-9-carboxamide], the class is listed as 1 (Class 1: The value of percent of control at 10^−7 M was less than 40% or the value of IC50 was less than 50 nM.). Same read-out and setting: for `CSc1sc(C(=O)N[C@H]2CC[C@@H](Nc3cc(N(C)C)c4ccccc4n3)CC2)c(I)c1S(=O)(=O)C(C)C` [compound 766] the value was 3 (Class 3 The value of percent of control at 10^−7 M was more than 60% or the value of IC50 was more than 200 nM.). As for `CCOc1ccc(C(=O)CC(C(=O)NC[C@H]2CC[C@@H](Nc3nccc(N(C)C)n3)CC2)C2C(=O)N(c3ccccc3)N=C2C)cc1` (relative stereo) [compound 944], the class is given as 3 (Class 3 The value of percent of control at 10^−7 M was more than 60% or the value of IC50 was more than 200 nM.). The same measure, in the same setting: for `CN(C)c1nc(N[C@H]2CC[C@@H](CNCc3ccc4c(c3)OCCO4)CC2)nc2c1CCCC2` [compound 1384] the value was 3 (Class 3 The value of percent of control at 10^−7 M was more than 60% or the value of IC50 was more than 200 nM.). Same read-out and setting: for `CN(C)c1cc(N[C@H]2CC[C@@H](CNC(=O)c3ccc(-c4ccc(Cl)cc4[N+](=O)[O-])o3)CC2)nc2ccccc12` [compound 791] the value was 3 (Class 3 The value of percent of control at 10^−7 M was more than 60% or the value of IC50 was more than 200 nM.); for `CCCCC/C(=C\c1ccccc1)CN[C@H]1CC[C@@H](Nc2nccc(N(C)C)n2)CC1` [compound 1232], 3 (Class 3 The value of percent of control at 10^−7 M was more than 60% or the value of IC50 was more than 200 nM.); for `CN(C)c1cc(N[C@H]2CC[C@@H](CNC(=O)c3cccc4c3-c3ccccc3C4=O)CC2)nc2ccccc12` [compound 226], 3 (Class 3 The value of percent of control at 10^−7 M was more than 60% or the value of IC50 was more than 200 nM.).

For `CN(C)c1ccnc(N[C@H]2CC[C@@H](NC(=O)c3cc(F)c(Cl)cc3Cl)CC2)n1` [compound 257], the class was 3 (Class 3 The value of percent of control at 10^−7 M was more than 60% or the value of IC50 was more than 200 nM.). On the same count and under the same terms, for `CN(C)c1ccnc(N[C@H]2CC[C@@H](NC(=O)Cc3ccc(F)cc3)CC2)n1` [compound 286] the value was 3 (Class 3 The value of percent of control at 10^−7 M was more than 60% or the value of IC50 was more than 200 nM.); for `COc1ccccc1CCNC[C@H]1CC[C@@H](Nc2cc(N(C)C)c3ccccc3n2)CC1` [compound 1470], 3 (Class 3 The value of percent of control at 10^−7 M was more than 60% or the value of IC50 was more than 200 nM.).

Still in this assay, the particulars now being: class by percent of control at 10^−7 M or IC50.
With `Cc1ccc(CN[C@H]2CC[C@@H](Nc3ncc(C)c(N(C)C)n3)CC2)cc1` [compound 2996], the class is 3 (Class 3 The value of percent of control at 10^−7 M was more than 60% or the value of IC50 was more than 200 nM.). Same read-out and setting: for `Cc1cnc(N[C@H]2CC[C@@H](NC(=O)C[S+]([O-])c3ccccc3Cl)CC2)nc1N(C)C` (relative stereo) [compound 2881, 2-[(2-chlorophenyl)sulfinyl]-N-(cis-4-{[4-(dimethylamino)-5-methylpyrimidin-2-yl]amino}cyclohexyl)acetamide] the value was 1 (Class 1: The value of percent of control at 10^−7 M was less than 40% or the value of IC50 was less than 50 nM.).

The record behind these values is patent US20050197350A1, “Novel quinoline, tetrahydroquinazoline, and pyrimidine derivatives and methods of treatment related to the use thereof” (TAISHO PHARMACEUTICAL CO., LTD., priority 2003, published 2005).
